US20120214186A1, “METHODS AND COMPOSITIONS FOR DETECTING AND QUANTIFYING sAPPbeta” (priority 2006, published 2012)

Key:
[1] = system: SY5Y-BACEGFP-SEAPAPPwt stable cells; conditions: at concentrations used; data not shown
BACE1 [2] = target: T1, BACE1 (Homo sapiens, UniProt P56817); assay: Cell-based BACE1 assay (sAPPβ ELISA-SEAP), SY5Y-BACEGFP-SEAPAPPwt stable cells; conditions: 6 hours, 96-well; TAPI-2 100 mM, BACE inhibitor IV 5 mM, AEBSF 500 mM, Cpd E 20 nM
T1 construct: expressed in transfected cells
T1 sequence (P56817 46-501): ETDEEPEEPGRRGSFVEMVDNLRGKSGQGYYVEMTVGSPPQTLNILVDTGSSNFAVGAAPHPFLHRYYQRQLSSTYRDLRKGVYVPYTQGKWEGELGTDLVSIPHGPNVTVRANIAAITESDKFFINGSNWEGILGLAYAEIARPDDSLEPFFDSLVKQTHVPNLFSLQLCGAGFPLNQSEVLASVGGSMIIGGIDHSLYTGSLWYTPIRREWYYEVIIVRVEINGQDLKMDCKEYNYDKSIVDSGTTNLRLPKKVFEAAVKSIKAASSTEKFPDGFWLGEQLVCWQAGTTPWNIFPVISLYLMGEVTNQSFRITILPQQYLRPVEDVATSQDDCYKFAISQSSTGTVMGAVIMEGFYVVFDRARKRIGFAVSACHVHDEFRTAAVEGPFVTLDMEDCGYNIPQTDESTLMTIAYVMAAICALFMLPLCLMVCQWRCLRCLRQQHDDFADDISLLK
Procedure: […] cells expressing BACEGFP and SEAPAPPwt were grown on standard cell culture plates in DMEM (Invitrogen) supplemented with 10% fetal bovine serum, 1% Pen/Strep/Glutamine, and 250 μg/ml zeocin. SEAPAPPwt is cleaved by BACE1 (β-secretase) as well as a secretase to release large extracellular fragments sAPPβ and sAPPα, respectively. Cell culture media containing these fragments was harvested and SEAP-sAPPβ was captured using 96-well plates coated with the sAPPβ specific antibody (sβwt). The ELISA plate was then incubated with the fluorescent alkaline phosphatase substrate 4-MUP (Sigma) at a final concentration of 30 μM (in 100 mM glycine, 1 mM MgCl2, 1 mM ZnCl2 at pH 9.8) for 1 hour before detection (excitation: 360 nm, emission: 449 nm).
SY5Y-BACEGFP-SEAPAPPwt stable cells were grown to 100% confluence on 96-well plates in quadruplicate and incubated for 6 hours with DMSO, TAPI-2 ([…]), RACE inhibitor IV ([…]), AEBSF ([…]), or Cpd E (20 nM) in […] of conditioned media (DMEM (invitrogen) supplemented with 10% fetal bovine serum, 1% Pen/Strep/Glutamine, and 250 μg/ml zeocin).
A sAPPβ ELISA-SEAR assay was conducted using […] of media.
Media was collected after 6 hrs incubation and […] was used in the BACE1 assay as described above.

HEK293-APPNFEV cells = conditions: read-out: reported IC50; cited from earlier work
BACE1 [3] = target: T2, BACE1 (Mus musculus, UniProt P56818); conditions: mouse model of AD; cited from earlier work
T2 construct: host or cells: mouse model of AD
T2 sequence (P56818 46-501): as the sequence (P56817 46-501) above, with P6S, V162I, L165I, S180T, V182A, I340V, L393A, Q443H counted along it

[4] = p-glycoprotein inhibitor required to increase transport; cited from earlier work

Row | Structure (SMILES) | cellular toxicity [1] | effect on sAPPβ (BACE1 [2]) | other results
1 | NCCc1ccc(S(=O)(=O)F)cc1 [AEBSF] | do not exhibit significant cellular toxicity | dramatically reduced | 
2 | C[C@@H](NC(=O)c1cc(C(=O)N[C@@H](Cc2ccccc2)[C@H](O)CNC2CC2)cc(N(C)S(C)(=O)=O)c1)c1ccccc1 [BACE inhibitor IV] | do not exhibit significant cellular toxicity |  | IC50 (HEK293-APPNFEV cells): 29 nM
3 | C[C@H](NC(=O)Cc1cc(F)cc(F)c1)C(=O)N[C@H]1N=C(c2ccccc2)c2ccccc2N(C)C1=O [CpdE] |  | no effect | 
4 | CCNc1cc(C(=O)N[C@@H](Cc2ccccc2)[C@H](O)CNCc2cccc(C(F)(F)F)c2)c(F)c(N2CCCCS2(=O)=O)c1 [GSK188909] |  |  | in vivo efficacy (BACE1 [3]): in vivo efficacy; brain penetration [4]: low brain penetration
5 | CC(C)C[C@H](CC(=O)NO)C(=O)N[C@H](C(=O)N[C@@H](C)C(=O)NCCN)C(C)(C)C [TAPI-2] |  | no effect | 
